Measured values taken from patent US12103952B2, “Methods for expressing proteins in axons” (Cornell University, priority 2010, dated 2024).

Key:
Assay type in all cases: cell-based, rat
DRG axons = assay: IRES-driven myr-dEGFP Sindbis reporter in compartmented cultures with translation inhibitors; details: added for 48 hrs to the axonal compartment
Description: FIGS. 1A-O are data showing that the compartmentalization of DRGs enables axon-specific manipulations and quantitative measurement using fluorescent probes. (A) Immunofluorescence analysis of 3 DIV DRG cultures+/−5-FdU. […] Scale bar, 50 μm. […] Scale bar, 50 μm. (C) Immunofluorescence analysis of compartmented cultures (montage micrographs). Retrogradely labeled (WGA-Alexa555, red) DRG axons fasciculate and grow under the 1 mm divider into the axon compartment. Axons defasciculate as they enter the axon compartment. Cell bodies (DAPI, blue) are restricted to the cell body compartment. Only WGA-Alexa555 labeled cell bodies are included in data sets, as they comprise the population of neurons extending axons across the divider. (D) Dissociated DRG neurons (5 DIV) in compartmented cultures were treated with NGF in either or both compartments. […] Numbers on bars represent n cells per condition. (E, F) DRG axons in compartmented cultures were infected with a Sindbis virus encoding myr-dEGFP under the control of an IRES by applying the virus to both cell body and axonal compartments. […] All compartments were maintained in identical NGF-containing media throughout the course of the experiment. […] Incomplete abolishment of FISH signals, relative to siRNA-treated axons, reflects residual alternatively-spliced CREBβ transcripts in these hypomorphic animals (Blendy et al., EMBO Journal 15, 1098-1106 (1996)). Additionally, axonal mRNAs are trafficked as mRNA-ribosome complexes, and impaired CREBβ mRNA-ribosome interactions due to the poor Kozak site (Blendy et al., EMBO Journal 15, 1098-1106 (1996)) in this transcript may lead to inefficient trafficking. Scale bar, 10 μm. (H) Quantification of data in (G). *p<0.0001. Numbers on bars represent n axons per condition. (I) Similar to the experiment in FIG. 4A, except equivalent numbers of cell bodies and axon terminals were used for Western blotting. DRG explants were cultured in Boyden chambers, and the upper compartment was incubated in 0 ng/ml NGF. The lower compartment was incubated in either 0 ng/ml NGF or 100 ng/ml NGF for 3 hours. Axon lysates (˜10^4 cells) were prepared from the underside of the membrane and analysed by Western blot. As in FIG. 4A, only CREB was detected in axons, and CREB localization in […] axons was dependent on NGF in the culture media. (J) DRG cultures were transfected with CREB siRNA and CREB levels were detected using a CREB antibody. […] Scale bar, 20 μm. (K) Quantification of data in (J). *p<0.001. Numbers on bars represent n axons per condition. (L) E15 DRG neuronal lysate (10 μg) was subjected to immunoblotting with the CST-9192 CREB antibody. (M) CREB was detected by immunofluorescence using CREB antibody sc-186 (see I, FIG. 4A, and Table S4). Scale bar 10 μm. […] (0) Quantification of data in (M). *p<0.0001. […]

4E-BP1 = assay: Phospho-4E-BP1 immunofluorescence in axons; details: NGF 1 hour after 2 hour NGF-free media
Description: FIGS. 2A-E are results showing that local protein synthesis in axons is required for NGF-dependent survival. (A) Phospho-4E-BP1 levels increase in growth cones in response to NGF treatment. DRG neurons were incubated with NGF-replete or NGF-free media; phospho-4E-BP1 levels in axons were measured by immunofluorescence. Scale bar, 50 μm. (B) Quantification of total and phospho-4EBP1 in (A) p=0.012. Numbers on bars represent n axons per condition. (C) Schematic diagram of compartmented (Campenot) chambers. E15 dissociated DRG neurons are cultured in the cell body compartment and axons grow under a thinly applied silicone grease layer that seals the chamber with the Permanox® plastic culture slide. (D) Application of protein synthesis inhibitors to axons blocks NGF-mediated retrograde survival. Dissociated DRG neurons were grown in compartmentalized chambers, and vehicle or NGF was added to the axon compartment. 1 μM cycloheximide (CHX) or 40 μM anisomycin (Aniso) were added to the axon compartment concurrently with NGF media. Cell body compartments were kept NGF-free during the course of the experiment. Cells crossing the divider were retrogradely labeled with WGA-Alexa555 and only WGA-positive cell bodies were counted in the data set. Survival was assessed by TUNEL assay. […] (E) Quantification of results from (D). *p<0.001. […]

[1] = test system: CRE-dependent transcription; assay: CRE-luciferase adenovirus reporter in DRG neurons

Compound	myr-EGFP fluorescence in the axonal compartment (DRG axons)	myr-EGFP levels in the cell body compartment (DRG axons)	phosphorylation of 4E-BP1 in axons (4E-BP1)	luciferase levels ([1]; axonal application of NGF)	luciferase immunofluorescence ([1]; bath application of NGF, 0-100 ng/ml, 24 hours)
COc1ccc(C[C@H]2NC[C@H](O)[C@H]2OC(C)=O)cc1 [anisomycin]	loss of myr-EGFP fluorescence	no significant effect			
C[C@@H]1C[C@@H]([C@H](O)CC2CC(=O)NC(=O)C2)C(=O)[C@@H](C)C1 [cycloheximide]	loss of myr-EGFP fluorescence	no significant effect			
NGF: nerve growth factor			increased phosphorylation of 4E-BP1 at S64 and T69	increased luciferase levels	dose-dependent increase in luciferase immunofluorescence
